# In US20060281755A1, “SYNERGISTIC MODULATION OF FLT3 KINASE USING AMINOPYRIMIDINES KINASE MODULATORS” (priority 2005, published 2006):
# Tested on: MV4-11 tumor xenografts
# Test: MV4-11 human tumor xenograft regression model in nude mice
# Assay type: in vivo
# Settings: 50 mg/kg bid oral
# Protocol: Female athymic nude mice (CD-1, nu/nu, 9-10 weeks old) were obtained from Charles River Laboratories (Wilmington, Mass.) and were maintained according to NIH standards. All mice were group housed (5 mice/cage) under clean-room conditions in sterile micro-isolator cages on a 12-hour light/dark cycle in a room maintained at 21-22° C. and 40-50% humidity. Mice were fed irradiated standard rodent diet and water ad libitum. All animals were housed in a Laboratory Animal Medicine facility that is fully accredited by the American Association for Assessment and Accreditation of Laboratory Animal Care (AAALAC). […]
# The time course of the inhibitory effects of FLT3 inhibitor compounds on the growth of MV4-11 tumors is illustrated in FIG. 1. […] Percent inhibition (% 1) of tumor growth was calculated versus tumor growth in the vehicle-treated Control group on the last study day. Statistical significance versus Control was determined by Analysis of Variance (ANOVA) followed by Dunnett's t-test: * p<0.05; ** p<0.01.
# (See FIG. 2). […] Percent Inhibition was calculated versus the mean tumor weight in the vehicle-treated control group. Statistical significance versus Control was determined by ANOVA followed by Dunnett's t-test: ** p<0.01. […]
smiles,measurement,setting,value
"Cn1cncc1C(N)(c1ccc(Cl)cc1)c1ccc2c(c1)c(-c1cccc(Cl)c1)cc(=O)n2C (single isomer, unassigned; (+)) [Tipifarnib, (+)-6-[amino(4-chlorophenyl)(1-methyl-1H-imidazol-5-yl)methyl]-4-(3-chlorophenyl)-1-methyl-2(1H)-quinolinone]",effect on tumor growth as single agent,9 days,ineffective
same,effect on tumor growth as single agent,16 days,ineffective
